Laboratory results published in article PMC5944384 (Chemical Science, 2018).
Each block holds one molecule with its values, some of them ahead of it.

Assays:
[1] = test system: PSN-1 pancreatic cancer cells; experiment: MTT cytotoxicity test, 72 h; assay type: cell-based, human; details: read-out: IC50 PSN-1 pancreas
[2] = test system: HCT-15 colon cancer cells; experiment: MTT cytotoxicity test, 72 h; assay type: cell-based, human; details: read-out: IC50 HCT-15 colon
[3] = test system: BCPAP thyroid cancer cells; experiment: MTT cytotoxicity test, 72 h; assay type: cell-based, human; details: read-out: IC50 BCPAP thyroid
[4] = test system: HEK293 cells; experiment: MTT cytotoxicity test in non-cancerous cells; assay type: cell-based, human; details: for Selectivity index (SI) BCPAP: IC50 non-tumor (HEK293)/tumor cell line BCPAP; for Selectivity index (SI) LoVo: IC50 non-tumor (HEK293)/tumor cell line LoVo; for Selectivity index (SI) PSN-1: IC50 non-tumor (HEK293)/tumor cell line PSN-1; for IC50: read-out: IC50 HEK293, MTT, 72 h, non-cancerous cells
[5] = test system: panel of human cancer cell lines (HCT-15, BCPAP, PSN-1, LoVo, 2008, C13*); experiment: MTT cytotoxicity test, average over the six cell lines; assay type: cell-based; details: for IC50: read-out: Average IC50, average of one compound over the six cell lines
[6] = test system: LoVo colon cancer cells; experiment: MTT cytotoxicity test, 72 h; assay type: cell-based, human; details: read-out: IC50 LoVo colon
[7] = test system: 2008 ovarian adenocarcinoma cells (cisplatin sensitive); experiment: MTT cytotoxicity test, 72 h; assay type: cell-based, human; details: read-out: IC50 2008 ovary
[8] = test system: PSN-1 3D spheroids; experiment: Cytotoxicity in 3D spheroid cultures, APH test; details: for IC50: read-out: IC50 PSN-1 3D, spheroids, 72 hours
[9] = test system: C13* ovarian cancer cells (cisplatin resistant); experiment: MTT cytotoxicity test, 72 h; assay type: cell-based, human; details: for Resistant factor (RF): IC50 resistant/parent line, C13*/2008; for IC50: read-out: IC50 C13* ovary, MTT, 72 h
[10] = Stability in phosphate buffer at 37 °C monitored by HPLC; assay type: physicochemical; details: pH 7, HPLC, followed over days
[11] = test system: PSN-1 cells; experiment: Mitochondrial membrane potential; assay type: cell-based, human; details: 24 h, 1 μM
[12] = test system: HEK293 cells; experiment: ROS production in non-cancerous cells; assay type: cell-based, human; details: 10 µM
[13] = test system: PSN-1 cells; experiment: ROS production; assay type: cell-based, human; details: 10 μM, compared with antimycin A
[14] = test system: LoVo OXP colon cancer cells; experiment: MTT cytotoxicity test, oxaliplatin resistant cells; assay type: cell-based, human; details: IC50 resistant/parent line
[15] = test system: HEK293 cells; experiment: Mitochondrial membrane potential in non-cancerous cells; assay type: cell-based, human; details: 24 h, 1 µM
[16] = target: T1, COX-2 (Homo sapiens, UniProt P35354); experiment: COX-2 inhibition in treated cells; assay type: cell-based; details: PSN-1 cells, 24 h, 1 μM
T1 sequence (P35354 18-604): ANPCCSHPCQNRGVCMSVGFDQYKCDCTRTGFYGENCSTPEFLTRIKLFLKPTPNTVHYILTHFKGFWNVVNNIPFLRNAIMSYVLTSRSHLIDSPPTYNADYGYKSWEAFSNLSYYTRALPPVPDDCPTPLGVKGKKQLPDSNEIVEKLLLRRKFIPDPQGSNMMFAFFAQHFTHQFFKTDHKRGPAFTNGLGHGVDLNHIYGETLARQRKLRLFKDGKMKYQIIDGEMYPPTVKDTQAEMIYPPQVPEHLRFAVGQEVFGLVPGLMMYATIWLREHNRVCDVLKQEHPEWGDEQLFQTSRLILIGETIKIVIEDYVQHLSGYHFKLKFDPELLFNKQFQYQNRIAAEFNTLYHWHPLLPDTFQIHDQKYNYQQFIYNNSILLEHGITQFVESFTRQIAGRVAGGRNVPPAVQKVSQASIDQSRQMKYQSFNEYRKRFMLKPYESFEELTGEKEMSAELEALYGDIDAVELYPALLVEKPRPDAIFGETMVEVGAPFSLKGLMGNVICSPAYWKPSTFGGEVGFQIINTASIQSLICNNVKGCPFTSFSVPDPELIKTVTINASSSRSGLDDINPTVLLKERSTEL

SMILES: [NH2][Pt]([NH2])([Cl])[Cl] [CDDP, Cisplatin]
IC50 [1]: 18200 ± 3110 nM
IC50 [2]: 15300 ± 2630 nM
IC50 [3]: 7380 ± 1530 nM
Selectivity index (SI) BCPAP [4]: 2.6
Selectivity index (SI) LoVo [4]: 2.1
Selectivity index (SI) PSN-1 [4]: 1.1
IC50 [4]: 19600 ± 2330 nM
IC50 [5]: 12500 nM
IC50 [6]: 9150 ± 2070 nM
IC50 [7]: 2220 ± 1020 nM
IC50 [8]: 52600 ± 3780 nM
Resistant factor (RF) [9]: 10.1
IC50 [9]: 22500 ± 3150 nM

Stability in phosphate buffer solution [10]: stable
COX-2 inhibition [16]: 8.4%
SMILES: [NH2][Pt]([NH2])([Cl])([Cl])([O]C(=O)CCCc1ccccc1)[O]C(=O)C(Cl)Cl [CPD, ctc-[Pt(NH3)2(PhB)(DCA)Cl2]]
IC50 [1]: 100 ± 20 nM
IC50 [2]: 1060 ± 130 nM
IC50 [3]: 110 ± 30 nM
Cells with hypopolarized mitochondrial membrane potential [11]: 25–30%
Selectivity index (SI) BCPAP [4]: 14.2
Selectivity index (SI) LoVo [4]: 82.1
Selectivity index (SI) PSN-1 [4]: 15.6
IC50 [4]: 1560 ± 220 nM
Induction of cellular ROS production [12]: barely effective
Average IC50, times lower than cisplatin ([5]; average over six cell lines): 34 fold
Average IC50, times lower than oxaliplatin ([5]; average over six cell lines): 9 fold
Average IC50, times more potent than CVD ([5]; average over six cell lines): 3 fold
IC50 [5]: 370 nM
IC50 [6]: 19 ± 10 nM
IC50 [7]: 330 ± 40 nM
Times more active than cisplatin in PSN-1 3D spheroids ([8]; 72 hours): more than 50 fold
IC50 [8]: 950 ± 1120 nM
Increase in cellular basal ROS production [13]: only slightly inferior to that elicited by antimycin A
Resistant factor (RF) [14]: < 2
Effect on mitochondrial membrane potential [15]: barely effective
Resistant factor (RF) [9]: 1.8
IC50 [9]: 580 ± 60 nM

SMILES: O=C1[O][Pt]2([NH][C@@H]3CCCC[C@H]3[NH]2)[O]C1=O [OXP, oxaliplatin]
IC50 [1]: 8250 ± 3420 nM
IC50 [2]: 1150 ± 430 nM
IC50 [3]: 4370 ± 1070 nM
IC50 [5]: 3230 nM
IC50 [6]: 1010 ± 340 nM
IC50 [7]: 1530 ± 880 nM
Resistant factor (RF) [9]: 2.0
IC50 [9]: 3060 ± 1000 nM
